We go through two compounds from article PMC9415646, “Improving Aqueous Solubility and In Vitro Pharmacokinetic Properties of the 3-Nitroimidazo[1,2-a]pyridine Antileishmanial Pharmacophore” (Pharmaceuticals, 2022).

Molecules are shown by their SMILES.

As usually defined, the EC50 is the midpoint of the concentration-response curve. What is called melting point is the temperature, or range, at which the solid turns liquid.

For data set [1], the system named is L. donovani promastigotes. The experiment in a line: Antileishmanial activity against L. donovani promastigotes (MTT assay). Format: cell-based. The note with it: Leishmania donovani; promastigotes, 72 h, MTT; read-out: EC50 L. donovani Pro. (In general: Tetrazolium dyes change colour on reduction, which living cells bring about.)
In data set [2] the test system is L. infantum axenic amastigotes. The experiment in a line: Antileishmanial activity on L. infantum axenic amastigotes (luciferase assay). Format: cell-based. The note with it: Leishmania infantum, 48 h, read-out: EC50 L. infantum Axenic Ama.
Data set [3] is described as follows: Redox potential of the nitro group by cyclic voltammetry. Format: physicochemical. The settings on record: cyclic voltammetry in DMSO, corrected versus NHE. Here is the method: Voltammetric measurements were carried out with a potentiostat Autolab PGSTAT100 (ECO Chemie, Utrecht, The Netherlands) controlled by GPES 4.09 software (ECO Chemie, Utrecht, The Netherlands). Experiments were performed at room temperature in a homemade airtight three–electrode cell connected to a vacuum/argon line. The reference electrode consisted of a saturated calomel electrode (SCE) separated from the solution by a bridge compartment. The counter electrode was a platinum wire of 1 cm^2 apparent surface. The working electrode was a GC microdisk (1.0 mm in diameter–Bio-logic SAS). The supporting electrolyte (nBu4N)[PF6] (Fluka, 99% puriss electrochemical grade) and the solvent DMSO (Sigma-Aldrich puriss p.a. dried <0.02% water) were used as received and simply degassed under argon. The solutions used during electrochemical analyses were typically 10^−3 M in compound and 0.1 M in supporting electrolyte. Before each measurement, the solutions were degassed by bubbling Ar, and the working electrode was polished with a polishing machine (Presi P230, Eybens, France). Under the experimental conditions adopted in this work, the half-wave potential (E1/2) of the ferrocene Fc+/Fc couple in DMSO was E1/2 = 0.45 V vs. SCE. Experimental peak potentials were measured versus SCE and converted to NHE by adding 0.241 V.

Data set [4] is described as follows: Mouse microsomal stability. Format: in vitro ADME. The note with it: female, CD-1, pH 7.4; mouse liver microsomes; read-out: Mouse Microsomal Stability T1/2. Here is the method:
The tested product and propranolol, used as reference, were incubated in duplicate (reaction volume of 0.5 mL) with female mouse microsomes (CD-1, 20 mg/mL, BD Gentest™) at 37 °C in a 50 mM phosphate buffer, pH 7.4, in the presence of MgCl2 (5 mM), NADP (1 mM), glucose-6-phosphate dehydrogenase (0.4 U/mL) and glucose-6-phosphate (5 mM). […] After centrifugation at 10,000× g, 10 min, 4 °C, the supernatants were maintained at 4 °C for immediate analysis or placed at -80 °C for later analysis. Controls (t0 and tfinal) in triplicate were prepared by incubation of the internal standard with microsomes denatured by acetonitrile. […] The mobile phases were (A) ammonium acetate 10 mM and (B) acetonitrile with 0.1% formic acid. The injection volume was 1 µL and the flow rate 600 µL/min. […] Each compound was quantified by converting the average of the ratios of the analyte/internal standard surfaces to the percentage of product consumed. The ratio of the control at t0 corresponded to 0% of product consumed. The half-life (T1/2) of each compound in the presence of microsomes was calculated according to the equation: t1/2=ln(2)/k , where k is the first-order degradation constant (the slope of the logarithm of compound concentration versus incubation time). The intrinsic clearance in vitro (Clint expressed in μL/min/mg) is calculated according to the equation: Clint=dose/AUC∞/[microsomes] where “dose” is the initial concentration of product in the sample, AUC∞ is the area under the concentration-time curve extrapolated to infinity and [microsomes] is the microsome concentration expressed in mg/µL.
In general terms: Liver microsomes are vesicles of endoplasmic reticulum, rich in cytochrome P450 enzymes.

`O=[N+]([O-])c1c(CS(=O)(=O)CCC(F)(F)F)nc2c(-c3ccncc3)cc(Cl)cn12` [Compound 7, 6-Chloro-3-Nitro-8-(Pyridin-4-yl)-2-[(3,3,3-Trifluoropropylsulfonyl)methyl]imidazo[1,2-a]pyridine] came in with a melting point of 184 °C. The EC50 in data set [1] turned out to be 3.1 ± 0.6 µM. Moreover, the concentration giving a half-maximal response (EC50) in data set [2] was 14 ± 0.9 µM. In data set [3], the “E0 (redox potential of the nitro group)” value was −0.61 V. Further, the half-life in data set [4] is over 40 min.

As to `O=[N+]([O-])c1c(CS(=O)(=O)CCC(F)(F)F)nc2c(Sc3ccc(Cl)cc3)cc(Cl)cn12` [Compound 3i, 6-Chloro-8-[(4-Chlorophenyl)thio]-3-Nitro-2-[(3,3,3-Trifluoropropylsulfonyl)methyl]imidazo[1,2-a]pyridine], the melting point turned out to be 183 °C. Further, the concentration for a half-maximal effect (EC50) in data set [1] came out at 1.4 ± 0.2 µM. The EC50 in data set [2] came out at 0.8 ± 0.3 µM. Also, in data set [3], the “E0 (redox potential of the nitro group)” value is reported as −0.64 V. In addition, in data set [4], the half-life worked out at 9.1 min.
